In one data set the target is T1, CYP 3A4 (Homo sapiens, UniProt P08684).
T1 construct: from tissue; host or cells: human liver microsomes
The data set is described as follows: CYP inhibition in human liver microsomes, 3A4. It counts as in vitro ADME. As to conditions: pH 7.4, @ 10 μM concn. A digest of the protocol:
(§1)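 Test compounds at […] and 10 μM were incubated in duplicate with human liver microsomes, probe substrate and 1 mM NADPH in 100 mM phosphate buffer pH 7.4 at 37° C. Reactions were stopped with acetonitrile containing internal standard, and the marker-reaction metabolite was quantified by LC-MS/MS.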

The next data set addresses T2, CYP 2C19 (Homo sapiens, UniProt P33261).
T2 construct: from tissue; host or cells: human liver microsomes
Put plainly: CYP inhibition in human liver microsomes, 2C19. It counts as in vitro ADME. The following applies: pH 7.4, @ 10 μM concn. A digest of the protocol:
as §1

Another data set has as its system SCW Arthritis Model. The data set is described as follows: SCW Arthritis model (PGPS-induced paw swelling). The following applies: Dose: 10 mpk, po, rats, Mean ± SD, n = 8. It counts as in vivo, Female Sprague dawley (SD) rats. As to the method: All the animal experiments were carried out in female rats and mice, bred in-house. Animals were housed in groups of 6 animals per cage, for a week, in order to habituate them to vivarium conditions (25±4° C., 60-65% relative humidity, 12: 12 h light: dark cycle, with lights on at 7.30 am). All the animal experiments were carried out according to the internationally valid guidelines following approval by the ‘Zydus Research Center animal ethical committee’. SCW Arthritis Female Sprague dawley (SD) rats were primed with an intra-articular injection of 20 μl of peptidoglycan polysaccharide (PGPS), at 0.5 mg/ml of rhamnose in the right ankle. At 2 weeks the paw swelling were measured using a plethysmometer and rats assigned to groups based on initial paw swelling. On day 14 after model initiation, rats were dosed orally (po) with the test compounds. Following the dose administration, 1 h later, the rats received a booster dose of 0.5 ml of PGPS (0.5 mg/ml of rhamnose) via i.v. injection using their tail vein. Compounds were dosed for the following two more days and their paw volumes were measured for 3 more days. The efficacy of the compound was determined as percentage inhibition of paw swelling verses the control (untreated) group.

In another data set the target is T3, CYP 1A2 (Homo sapiens, UniProt P05177).
T3 construct: from tissue; host or cells: human liver microsomes
T3 sequence (P05177 1-516): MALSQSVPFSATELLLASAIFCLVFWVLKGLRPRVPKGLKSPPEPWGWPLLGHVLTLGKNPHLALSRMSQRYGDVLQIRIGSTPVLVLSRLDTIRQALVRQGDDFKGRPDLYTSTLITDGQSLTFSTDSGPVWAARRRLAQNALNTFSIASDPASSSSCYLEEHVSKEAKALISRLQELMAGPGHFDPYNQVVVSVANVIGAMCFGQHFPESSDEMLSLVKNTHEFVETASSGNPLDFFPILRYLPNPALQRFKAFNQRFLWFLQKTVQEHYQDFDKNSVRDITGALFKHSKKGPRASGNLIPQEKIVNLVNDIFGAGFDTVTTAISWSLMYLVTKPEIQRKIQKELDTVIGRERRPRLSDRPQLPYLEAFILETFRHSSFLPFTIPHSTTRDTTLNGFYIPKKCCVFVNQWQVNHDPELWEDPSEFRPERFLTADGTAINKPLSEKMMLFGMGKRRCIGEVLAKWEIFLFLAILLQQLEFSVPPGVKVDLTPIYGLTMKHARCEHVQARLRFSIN
Put plainly: CYP inhibition in human liver microsomes, 1A2. It counts as in vitro ADME. The following applies: pH 7.4, @ 10 μM concn. A digest of the protocol: as §1

For another data set, the target named is T4, CYP 2D6 (Homo sapiens, UniProt P10635).
T4 construct: from tissue; host or cells: human liver microsomes
Put plainly: CYP inhibition in human liver microsomes, 2D6. It counts as in vitro ADME. The following applies: pH 7.4, @ 10 μM concn. A digest of the protocol: as §1

In a further data set the target is T5, CYP 2C8 (Homo sapiens, UniProt P10632).
T5 construct: from tissue; host or cells: human liver microsomes
T5 sequence (P10632 1-490): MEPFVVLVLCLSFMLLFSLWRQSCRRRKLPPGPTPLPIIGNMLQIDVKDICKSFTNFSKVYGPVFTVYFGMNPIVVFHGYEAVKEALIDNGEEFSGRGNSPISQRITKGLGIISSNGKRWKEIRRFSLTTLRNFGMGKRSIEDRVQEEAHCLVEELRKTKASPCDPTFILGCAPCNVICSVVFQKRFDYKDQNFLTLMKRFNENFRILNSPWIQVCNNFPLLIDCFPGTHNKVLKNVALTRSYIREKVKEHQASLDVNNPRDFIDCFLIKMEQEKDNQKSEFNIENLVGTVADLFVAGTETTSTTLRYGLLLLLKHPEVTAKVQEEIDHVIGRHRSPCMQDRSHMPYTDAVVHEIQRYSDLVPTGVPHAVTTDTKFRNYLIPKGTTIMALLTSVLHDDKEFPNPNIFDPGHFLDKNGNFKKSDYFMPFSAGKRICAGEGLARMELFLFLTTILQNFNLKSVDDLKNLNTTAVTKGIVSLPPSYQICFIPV
Put plainly: CYP inhibition in human liver microsomes, 2C8. It counts as in vitro ADME. The following applies: pH 7.4, @ 10 μM concn. The essentials: as §1

The next data set deals with T6, CYP 2C9 (Homo sapiens, UniProt P11712).
T6 construct: from tissue; host or cells: human liver microsomes
Put plainly: CYP inhibition in human liver microsomes, 2C9. It counts as in vitro ADME. As to conditions: pH 7.4, @ 10 μM concn. The essentials:
as §1

T4 sequence (P10635 whole entry): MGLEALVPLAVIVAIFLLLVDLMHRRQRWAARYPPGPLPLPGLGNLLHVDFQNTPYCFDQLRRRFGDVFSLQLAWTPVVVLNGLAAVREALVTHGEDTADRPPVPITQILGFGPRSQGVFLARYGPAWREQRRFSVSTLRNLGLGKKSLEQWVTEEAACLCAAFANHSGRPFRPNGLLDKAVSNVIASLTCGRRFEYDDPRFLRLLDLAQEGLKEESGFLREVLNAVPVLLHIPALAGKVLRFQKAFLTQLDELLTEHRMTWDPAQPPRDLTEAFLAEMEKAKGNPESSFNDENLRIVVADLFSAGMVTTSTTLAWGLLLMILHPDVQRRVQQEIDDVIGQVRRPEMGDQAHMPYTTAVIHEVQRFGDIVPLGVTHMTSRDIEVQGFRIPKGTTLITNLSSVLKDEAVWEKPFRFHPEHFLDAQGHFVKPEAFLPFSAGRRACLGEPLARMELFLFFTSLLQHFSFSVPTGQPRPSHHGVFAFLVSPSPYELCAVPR
T1 sequence (P08684 whole entry): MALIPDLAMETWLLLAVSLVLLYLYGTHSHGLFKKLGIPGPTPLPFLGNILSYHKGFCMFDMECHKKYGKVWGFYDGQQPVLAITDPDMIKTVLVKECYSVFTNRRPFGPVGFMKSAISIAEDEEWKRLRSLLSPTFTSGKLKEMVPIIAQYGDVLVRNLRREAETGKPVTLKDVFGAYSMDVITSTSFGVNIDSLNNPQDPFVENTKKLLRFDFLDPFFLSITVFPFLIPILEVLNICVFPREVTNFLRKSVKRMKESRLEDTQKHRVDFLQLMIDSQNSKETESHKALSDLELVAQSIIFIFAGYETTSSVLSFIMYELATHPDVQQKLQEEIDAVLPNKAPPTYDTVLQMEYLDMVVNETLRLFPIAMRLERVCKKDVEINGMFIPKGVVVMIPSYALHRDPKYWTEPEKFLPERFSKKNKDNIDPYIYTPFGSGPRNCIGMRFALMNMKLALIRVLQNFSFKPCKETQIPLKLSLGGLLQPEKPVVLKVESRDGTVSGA
T6 sequence (P11712 whole entry): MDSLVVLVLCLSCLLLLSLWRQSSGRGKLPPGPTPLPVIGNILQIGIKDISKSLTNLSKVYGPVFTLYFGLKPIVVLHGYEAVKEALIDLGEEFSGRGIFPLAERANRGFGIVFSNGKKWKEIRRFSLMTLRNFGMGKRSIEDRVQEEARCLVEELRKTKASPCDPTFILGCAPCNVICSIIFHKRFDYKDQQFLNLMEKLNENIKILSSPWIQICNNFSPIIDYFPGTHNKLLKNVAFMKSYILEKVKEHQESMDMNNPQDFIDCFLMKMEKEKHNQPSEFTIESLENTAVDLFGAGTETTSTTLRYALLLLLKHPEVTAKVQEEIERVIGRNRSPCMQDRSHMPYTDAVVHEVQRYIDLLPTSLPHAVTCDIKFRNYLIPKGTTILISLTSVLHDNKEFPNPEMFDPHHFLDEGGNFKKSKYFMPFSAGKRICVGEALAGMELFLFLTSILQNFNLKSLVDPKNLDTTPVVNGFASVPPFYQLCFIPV
T2 sequence (P33261 whole entry): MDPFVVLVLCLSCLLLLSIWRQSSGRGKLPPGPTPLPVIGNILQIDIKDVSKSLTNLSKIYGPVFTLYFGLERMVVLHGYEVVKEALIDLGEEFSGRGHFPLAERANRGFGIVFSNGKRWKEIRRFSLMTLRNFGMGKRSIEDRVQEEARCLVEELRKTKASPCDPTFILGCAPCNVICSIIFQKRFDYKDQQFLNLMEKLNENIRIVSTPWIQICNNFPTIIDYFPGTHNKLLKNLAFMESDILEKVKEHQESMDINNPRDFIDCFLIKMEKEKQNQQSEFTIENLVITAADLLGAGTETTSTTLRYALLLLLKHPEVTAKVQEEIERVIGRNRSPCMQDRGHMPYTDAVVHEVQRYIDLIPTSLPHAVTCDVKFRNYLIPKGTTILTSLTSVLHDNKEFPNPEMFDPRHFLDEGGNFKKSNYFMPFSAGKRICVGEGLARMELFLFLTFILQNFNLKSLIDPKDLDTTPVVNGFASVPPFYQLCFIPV

Turning to `C=CC(=O)N1CC2CC(n3nc(-c4ccc(C(=O)N(C)c5cc(C)ccn5)cc4)c4c(N)ncnc43)CC2C1` (centres unmarked) [Compound 54, 4-(1-(2-acryloyloctahydrocyclopenta[c]pyrrol-5-yl)-4-amino-1H-pyrazolo[3,4-d]pyrimidin-3-yl)-N-methyl-N-(4-methylpyridin-2-yl)benzamide], the inhibition at 10 μM on CYP 3A4, at CYP 2C19, against CYP 1A2, against CYP 2D6, against CYP 2C8 and against CYP 2C9 was less than 50% each time. In the data set on SCW Arthritis Model, the “% inhibition of paw inflammation, Day-16, in SCW Arthritis Model” value (“% inhibition of paw inflammation” for short) is recorded as 89.2 ± 10.3%.
On to `C=CC(=O)N1CC2CC(n3nc(-c4ccc(-c5nnc(-c6cnccn6)s5)cc4)c4c(N)ncnc43)CC2C1` (centres unmarked) [Compound 46, 1-(5-(4-amino-3-(4-(5-(pyrazin-2-yl)-1,3,4-thiadiazol-2-yl)phenyl)-1H-pyrazolo[3,4-d]pyrimidin-1-yl)hexahydrocyclopenta[c]pyrrol-2(1H)-yl)prop-2-en-1-one], for which the inhibition at 10 μM at CYP 3A4, on CYP 2C19, against CYP 1A2, against CYP 2D6, at CYP 2C8 and on CYP 2C9 was less than 50% throughout. In the data set on SCW Arthritis Model, the “% inhibition of paw inflammation” value stood at 81.8 ± 11.2%.
With `C=CC(=O)N1CC2CC(n3nc(-c4ccc(NC(=O)c5ccccn5)cc4)c4c(N)ncnc43)CC2C1` (centres unmarked) [Compound 32, N-(4-(1-(2-acryloyloctahydrocyclopenta[c]pyrrol-5-yl)-4-amino-1H-pyrazolo[3,4-d]pyrimidin-3-yl)phenyl)picolinamide], the inhibition at 10 μM against CYP 3A4 is greater than 50%; against CYP 2C19, less than 50%; against CYP 1A2, less than 50%; on CYP 2D6 it was less than 50%; against CYP 2C8, less than 50%; against CYP 2C9, less than 50%. For the same compound, the “% inhibition of paw inflammation” value in the data set on SCW Arthritis Model is 75.3 ± 6.2%.
In the case of `C=CC(=O)N1CC2CC(n3nc(-c4ccc(C(=O)Nc5cc(C)ccn5)cn4)c4c(N)ncnc43)CC2C1` (centres unmarked) [Compound 42, 6-(1-(2-acryloyloctahydrocyclopenta[c]pyrrol-5-yl)-4-amino-1H-pyrazolo[3,4-d]pyrimidin-3-yl)-N-(4-methylpyridin-2-yl)nicotinamide], the inhibition at 10 μM against CYP 3A4, against CYP 2C19, against CYP 1A2, against CYP 2D6, against CYP 2C8 and against CYP 2C9 was less than 50% in each case. In addition, the “% inhibition of paw inflammation” value in the data set on SCW Arthritis Model was 51.3 ± 9.7%.
`C=CC(=O)N1CC2CC(N3C(=O)N(c4ccc(Oc5ccccc5)cc4)C4C(N)=NC=NC43)CC2C1` (centres unmarked) [Compound 25, 9-(2-acryloyloctahydrocyclopenta[c]pyrrol-5-yl)-6-amino-7-(4-phenoxyphenyl)-5,7-dihydro-4H-purin-8(9H)-one]: the inhibition at 10 μM against CYP 3A4, at CYP 2C19, at CYP 1A2, against CYP 2D6, against CYP 2C8 and against CYP 2C9 was less than 50% throughout. Besides, in the data set on SCW Arthritis Model, the “% inhibition of paw inflammation” value was found to be 69.6 ± 12.7%.

For the origin of these results see US9840509B2, “Heterocyclic compounds” (CADILA HEALTHCARE LIMITED, priority 2014, dated 2017).
